Measured values published in ChEMBL document CHEMBL1201862, “PubChem BioAssay data set” (2004).
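Growth conditions: 96-well plates. Treatment: test compound, 48 hours, 5 concentrations. Analysis: linear interpolation between bracketing concentrations; unreached endpoints set to highest concentration. GI50 marks 50% less growth.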 The source made the active and inactive calls. Rule as the data show it: active = GI50 up to about 1.1 µM and inactive = higher.

Legend:
Experiment in all cases: NCI anticancer screen, dose series, 48 h
UACC-257 = tested on: UACC-257
U-251 = tested on: U-251
786-0 = tested on: 786-0
NCI-H226 = tested on: NCI-H226
KM12 = tested on: KM12
HOP-62 = tested on: HOP-62
MOLT-4 = tested on: MOLT-4
SK-MEL-2 = tested on: SK-MEL-2
SW-620 = tested on: SW-620
RPMI-8226 = tested on: RPMI-8226
HCT-116 = tested on: HCT-116
SK-MEL-28 = tested on: SK-MEL-28
A498 = tested on: A498
SF-539 = tested on: SF-539
NCI-H522 = tested on: NCI-H522
CAKI-1 = tested on: CAKI-1
HCT-15 = tested on: HCT-15

SMILES | GI50 (UACC-257) | GI50 (U-251) | GI50 (786-0) | GI50 (NCI-H226) | GI50 (KM12) | GI50 (HOP-62) | GI50 (MOLT-4) | GI50 (SK-MEL-2) | GI50 (SW-620) | GI50 (RPMI-8226) | GI50 (HCT-116) | GI50 (SK-MEL-28) | GI50 (A498) | GI50 (SF-539) | GI50 (NCI-H522) | GI50 (CAKI-1) | GI50 (HCT-15)
COc1ccc(/C(=N\NC(=O)C(N)=O)C(c2ccc(OC)cc2)C2(O)C(=O)Nc3c(Cl)cccc32)cc1 (configuration not stated) | > 100 µM (inactive) | > 100 µM (inactive) | 74.8 µM (inactive) | > 100 µM (inactive) | > 100 µM (inactive) | > 100 µM (inactive) | 82.4 µM (inactive) | > 100 µM (inactive) | > 100 µM (inactive) | > 100 µM (inactive) | > 100 µM (inactive) | > 100 µM (inactive) | – | – | – | – | –
CC1=Nc2ccccc2SC(c2c(Cl)cccc2Cl)C1 (configuration not stated) | 1.57 µM (inactive) | 0.345 µM (active) | 0.454 µM (active) | 1.51 µM (inactive) | 0.828 µM (active) | 2.15 µM (inactive) | 0.49 µM (active) | – | 0.43 µM (active) | 0.314 µM (active) | 0.225 µM (active) | 1.36 µM (inactive) | 2.12 µM (inactive) | 0.993 µM (active) | 1.22 µM (inactive) | 2.1 µM (inactive) | 1.19 µM
Cc1cc(O)nc(NNC(C#N)c2ccco2)n1 (configuration not stated) | > 100 µM (inactive) | > 100 µM (inactive) | > 100 µM (inactive) | > 100 µM (inactive) | > 100 µM (inactive) | > 100 µM (inactive) | > 100 µM (inactive) | > 100 µM (inactive) | > 100 µM (inactive) | > 100 µM (inactive) | > 100 µM (inactive) | > 100 µM (inactive) | – | > 100 µM (inactive) | > 100 µM (inactive) | > 100 µM (inactive) | > 100 µM
CC(=O)Oc1cc(OC(C)=O)c(OC(C)=O)c2c1CC1C(=O)C3(CCc4ccccc43)C(=O)C1C2 (configuration not stated) | – | 15.8 µM (inactive) | 13.6 µM (inactive) | – | – | 21.1 µM (inactive) | – | – | 17.9 µM (inactive) | 0.555 µM (active) | – | 18.2 µM (inactive) | – | – | – | 20.2 µM (inactive) | 18.1 µM
O=C(O)CCCc1cc2c(s1)-c1cccc3cccc-2c13 | 22.6 µM (inactive) | 25.4 µM (inactive) | > 100 µM (inactive) | 84.9 µM (inactive) | 19.4 µM (inactive) | 33.3 µM (inactive) | 24.1 µM (inactive) | 20.4 µM (inactive) | 36.2 µM (inactive) | 21.5 µM (inactive) | 34.8 µM (inactive) | 34.2 µM (inactive) | – | 45.3 µM (inactive) | 21 µM (inactive) | 32.6 µM (inactive) | 20.2 µM
COc1ccccc1-n1c(C)nc2ccccc2c1=O | > 100 µM (inactive) | > 100 µM (inactive) | > 100 µM (inactive) | > 100 µM (inactive) | > 100 µM (inactive) | > 100 µM (inactive) | > 100 µM (inactive) | > 100 µM (inactive) | > 100 µM (inactive) | – | > 100 µM (inactive) | > 100 µM (inactive) | > 100 µM (inactive) | > 100 µM (inactive) | > 100 µM (inactive) | > 100 µM (inactive) | > 100 µM
Cc1cc(O)nc(NNC(C#N)c2cccc([N+](=O)[O-])c2)n1 (configuration not stated) | > 100 µM (inactive) | > 100 µM (inactive) | > 100 µM (inactive) | > 100 µM (inactive) | > 100 µM (inactive) | > 100 µM (inactive) | > 100 µM (inactive) | > 100 µM (inactive) | > 100 µM (inactive) | > 100 µM (inactive) | > 100 µM (inactive) | > 100 µM (inactive) | – | > 100 µM (inactive) | > 100 µM (inactive) | > 100 µM (inactive) | > 100 µM
COc1cc(C(C#N)NNC(=O)Cc2ccccc2)cc(OC)c1OC (configuration not stated) | > 100 µM (inactive) | > 100 µM (inactive) | > 100 µM (inactive) | > 100 µM (inactive) | > 100 µM (inactive) | > 100 µM (inactive) | > 100 µM (inactive) | > 100 µM (inactive) | > 100 µM (inactive) | > 100 µM (inactive) | > 100 µM (inactive) | > 100 µM (inactive) | – | > 100 µM (inactive) | > 100 µM (inactive) | > 100 µM (inactive) | > 100 µM
CN(Cc1ccccc1)C1(N(C)Cc2ccccc2)CC1 | > 100 µM (inactive) | > 100 µM (inactive) | > 100 µM (inactive) | > 100 µM (inactive) | > 100 µM (inactive) | > 100 µM (inactive) | > 100 µM (inactive) | > 100 µM (inactive) | > 100 µM (inactive) | – | > 100 µM (inactive) | > 100 µM (inactive) | > 100 µM (inactive) | > 100 µM (inactive) | > 100 µM (inactive) | > 100 µM (inactive) | > 100 µM
